From US7291461B2, “Methods for identifying small molecules that modulate premature translation termination and nonsense mRNA decay” (PTC Therapeutics, Inc., priority 2002, dated 2007)
Entries after “also recorded” stand apart in the source; their conditions may differ.

What was measured:
[1] = tested on: luciferase RNA containing a UGA premature termination codon; assay: in vitro translation nonsense suppression assay in HeLa cell extract; assay type: biochemical, human; settings: FIG. 4
Experimental: This Example describes a method of preparing a cell extract to perform in vitro translation reactions to monitor nonsense suppression or to produce proteins in vitro. This method is different from other methods used to prepare translation extracts for several reasons.
HeLa S3 cells were grown to a density of 10^6 cells/ml in DMEM; 5% CO2, 10% FBS, 1×P/S in a spinner flask. Cells were harvested by spinning at 1000×g. Cells were washed twice with phosphate buffered saline. The cell pellet sat on ice for 12 to 24 hours before proceeding. By letting the cells sit on ice, the activity of the extract is increased two-fold. The length of time on ice can range from 0 hours to 1 week. The cells were resuspended in 1.5 volumes (packed cell volume) of hypotonic buffer (10 mM HEPES (KOH) pH 7.4; 15 mM KCl; 1.5 mM Mg(OAc)2; 0.5 mM Pefabloc (Roche); 2 mM DTT). Cells were allowed to swell for 5 minutes on ice and dounce homogenized with 10 to 100 strokes using a tight-fitting pestle. The cells were spun for 10 minutes at 12000×g at 4° C. in a Sorvall SS-34 rotor. […]
Further, in the presence of the aminoglycoside gentamicin, nonsense suppression activity (as measured by the amount of luciferase activity produced from a luciferase RNA containing a UGA premature termination codon) is increased 2 to 3 fold above untreated extracts (see FIG. 4). […]

[2] = tested on: mRNA containing a UGA premature termination codon; assay: biochemical assay: rabbit reticulocyte lysate and nonsense-containing luciferase reporter mRNA
Excerpt: (§1) Two assays were developed for use in high throughput screens to identify small molecules that promote nonsense suppression. Each assay utilized luciferase because it is a functional reporter gene assay (light is only produced if the protein is functional) and it is extremely sensitive (Light intensity is proportional to luciferase concentration in the nM range). The first assay was a cell-based luciferase reporter assay and the second was a biochemical assay consisting of rabbit reticulocyte lysate and a nonsense-containing luciferase reporter mRNA. In the cell-based assay, a luciferase reporter construct containing a UGA premature termination codon was stably transfected in 293T Human Embryonic Kidney cells. In the biochemical assay, mRNA containing a UGA premature termination codon was used as a reporter in an in vitro translation reaction using rabbit reticulocyte lysate supplemented with tRNA, hemin, creatine kinase, amino acids, KOAc, Mg(OAc)2, and creatine phosphate. […] Synthetic mRNA was prepared in vitro using the T7 promoter and the MegaScript in vitro transcription kit (Ambion).

[3] = tested on: luciferase reporter construct containing a UGA premature termination codon in 293T Human Embryonic Kidney cells; assay: cell-based luciferase reporter assay, stable cell line
Excerpt: as §1
Compound A and Compound B increase the level of nonsense suppression in the biochemical assay three to four fold over untreated extracts. […]

[4] = tested on: UGA, UAA or UAG nonsense alleles of luciferase; assay: nonsense suppression in cells transiently transfected with luciferase nonsense alleles in each codon context; assay type: cell-based; settings: 3 mg/ml, overnight
Experimental: Cells were transiently transfected with plasmids harboring the UGA, UAA or UAG nonsense alleles of luciferase in each codon context (UGAA, UGAC, UGAG, UGAU, UAGA, UAGC, UAGG, UAGU, UAAA, UAAC, UAAG, and UAAU) then the cells were treated overnight with Compound A, and gentamicin. The following day, the level of suppression was determined by measuring the amount of luminescence produced. The fold suppression above control cells treated with solvent was calculated and is numerically reported.

dystrophin [5] = assay: dystrophin immunostaining in mdx mouse primary skeletal muscle cultures; assay type: cell-based; settings: 200 μM
Experimental: FIG. 9. Immunohistochemistry of myotubes from primary cell culture from mdx muscle. The presence of dystrophin was detected by mAb to the COOH-terminus of dystrophin ([…]) followed by a rhodamine-conjugated anti-mouse IgG. […] Little dystrophin was detected in untreated mdx myotubes (right).
Mouse primary skeletal muscle cultures derived from 1-day old mdx mice were prepared as described previously (Barton-Davis et al., 1999, J Clin Invest. 104(4):375-381). Cells were cultured for 10 days in the presence of Compound A (20 μM). Culture medium was replaced every four days and the presence of dystrophin in myoblast cultures was detected by immunostaining as described previously (Barton-Davis et al., 1999, J Clin Invest. 104(4):375-381). A primary monoclonal antibody to the C-terminus of the dystrophin protein (F19A12) was used undiluted and rhodamine conjugated anti-mouse IgG was used as the secondary antibody. The F19A12 antibody will detect the full-length protein produced by suppression of the nonsense codon. Staining was viewed using a Leica DMR micropscope, digital camera, and associated imaging software at the University of Pennsylvania.

dystrophin [6] = assay: dystrophin immunofluorescence of tibialis anterior muscle of mdx mice treated by Alzet osmotic pumps; assay type: in vivo, mouse; settings: tissue exposure approximately 200 μM, osmotic pump
Experimental: FIG. 10A-10F. Immunohistochemistry of muscle cross-sections to view dystrophin. […] Muscle from untreated mdx mice (panel E) or from cross sections not treated with primary antibody (panel F) show only minimal staining.
As previously described (Barton-Davis et al., 1999, J Clin Invest. 104(4):375-381), compound was delivered by Alzet osmotic pumps implanted under the skin of anesthetized mice. Two doses of Compound A were administered. Gentamicin served as a positive control and pumps filled with solvent only served as the negative control. Pumps were loaded with appropriate compound such that the calculated doses to which tissue was exposed were 10 μM and 20 μM. The gentamicin concentration was calculated to achieve tissue exposure of approximately 200 μM. In the initial experiment, mice were treated for 14 days, after which animals were anesthetized with ketamine and exsanguinated. The tibialis anterior (TA) muscle of the experimental animals was then excised, frozen, and used for immunofluorescence analysis of dystrophin incorporation into striated muscle. The presence of dystrophin in TA muscles was detected by immunostaining, as described previously (Barton-Davis et al., 1999, J Clin Invest. 104(4):375-381; see mdx primary cells in Section 7.8 supra).

**Q.** For gentamicin, which “nonsense suppression activity (luciferase activity from luciferase RNA containing a UGA premature termination codon) above untreated extracts” value [1] is on record?
**A.** The value was 2 to 3 fold.

**Q.** And the “luciferase activity on addition of compound” value [2]?
**A.** Its value is “increased luciferase activity”.

**Q.** And the “luciferase activity on addition of compound” value [3]?
**A.** Its value is “increased luciferase activity”.

**Q.** What about the “fold suppression above control cells treated with solvent” value ([4]; context UAAA) of the same substance?
**A.** The value was 0.71 fold.

**Q.** What about the “fold suppression above control cells treated with solvent” value ([4]; context UAAC) of the same substance?
**A.** The value was 2.32 fold.

**Q.** And the “fold suppression above control cells treated with solvent” value ([4]; context UAAG)?
**A.** The value was 0.01 fold.

**Q.** And the “fold suppression above control cells treated with solvent” value ([4]; context UAAU)?
**A.** Its value is 0.92 fold.

**Q.** And the “fold suppression above control cells treated with solvent” value ([4]; context UAGA)?
**A.** The value was 1.31 fold.

**Q.** And the “fold suppression above control cells treated with solvent” value ([4]; context UAGC)?
**A.** Its value is 2.16 fold.

**Q.** What about the “fold suppression above control cells treated with solvent” value ([4]; context UAGG) of the same substance?
**A.** Its value is 0.64 fold.

**Q.** What about the “fold suppression above control cells treated with solvent” value ([4]; context UAGU) of the same substance?
**A.** The value was 0.54 fold.

**Q.** What about the “fold suppression above control cells treated with solvent” value ([4]; context UGAA) of the same substance?
**A.** The value was 0.76 fold.

**Q.** What about the “fold suppression above control cells treated with solvent” value ([4]; context UGAC) of the same substance?
**A.** The value was 1.91 fold.

**Q.** And the “fold suppression above control cells treated with solvent” value ([4]; context UGAG)?
**A.** Its value is 0.45 fold.

**Q.** And the “fold suppression above control cells treated with solvent” value ([4]; context UGAU)?
**A.** The value was 6.74 fold.

**Q.** What about the “presence of full-length dystrophin in myotubes (immunostaining, C-terminus antibody)” value (dystrophin [5]) of the same substance?
**A.** The value was “full-length dystrophin protein is produced and localized to the muscle myotubes; also recorded: Dystrophin was present”.

**Q.** What about the “dystrophin in TA muscle (immunostaining)” value (dystrophin [6]) of the same substance?
**A.** The value was “positive staining for dystrophin”.
